Reference: publication PMC5711494, “Sterol methyltransferase a target for anti-amoeba therapy: towards transition state analog and suicide substrate drug design” (Journal of Lipid Research, 2017)
Read-outs that look alike come from different tables or passages of the source.

Legend:
[1] = test system: Ac24-SMT; test: Substrate kinetics and product analysis with recombinant Ac24-SMT; type: biochemical, Acanthamoeba castellanii; settings: for product ratio generated by Ac24-SMT: normalized to cycloartenol at ∼70% conversion, saturating substrate, 45 min, 35°C
Protocol: (§1) The SMT constructs were transformed into competent BL21(DE3) cells and transformants selected against 100 µg/ml ampicillin. Expression of the SMT constructs and partial purification of the recombinant proteins followed the procedure described previously ([19]). […] In one tube, cells were induced by addition of isopropyl thio-galactoside at a final concentration of 1 mM and in the other tube, were un-induced. Cells were harvested 2 and 4 h after induction and an equal number of cells (as calculated by OD @600 nm) from induced (+) and un-induced (−) cultures were boiled with 1X Laemmli’s buffer and analyzed by SDS-PAGE (12%). Gel was stained with Coomassie Brilliant Blue (0.2%) to establish the molecular weight and purity of the expressed protein. Total protein concentrations were determined by Bradford dye-binding procedure with bovine γ-globulin as standard. To determine the catalytic activity of the recombinant proteins, enzyme assays were carried out using soluble bacterial extract (100,000 g fraction) in 9 ml test tubes containing a total of 600 µl assay volume for 45 min (initial velocity conditions). The assay buffer contained 20 mM phosphate buffer in 5% (v/v) glycerol at pH 7.5, sterol acceptor emulsified in 12 µl Tween 80 (1.2 g/l), and the substrate tested over the concentration range 5 to 150 µM against 1.2 mg of total protein. The reaction was initiated by the addition of saturating levels of [methyl-^3H3]SAM, 0.9 µCi, at 150 µM. Incubation mixtures were saponified with methanolic potassium hydroxide and extracted with hexane (3 × 1 ml) and concentrated to dryness providing the nonsaponifiable lipid fraction; radioactivity was determined by liquid scintillation counting. […]

[2] = test system: Ac28-SMT; test: Substrate kinetics and product analysis with recombinant Ac28-SMT; type: biochemical, Acanthamoeba castellanii; design: catalytic competence (kcat/Km) with Ac28-SMT: unit not given here; settings: for product ratio generated by Ac28-SMT: normalized, saturating substrate, 45 min, 35°C
Protocol: as §1

[3] = test system: TbSMT; design: method as in PMID 26496686; settings: cited from earlier work
[4] = test system: Acanthamoeba castellanii trophozoites (strain ATCC 30010); test: Ac trophozoite growth inhibition and minimum amoebicidal concentration (trypan blue exclusion); type: cell-based; settings: 48 h incubation
Protocol: Ac strain ATCC 30010 was inoculated (1 × 10^4 cells/ml) into tissue culture T-25 ml flasks, prepared with ATTC media 712 and cultured axenically in 5 ml medium at 25°C. Continuous cultures populated by trophozoites ([…]; the remaining cells were cysts) was maintained by sub-culturing 4–5 day growth arrested cells (1 × 10^6 cells/ml) into fresh medium. Steroidal inhibitor and azole susceptibility assays were performed in 24-well (4 × 6) microtiter plates (3 ml total). Trophozoite assay conditions and preparation of stock solutions made to 1 μg/10 μl and 1 μg/100 μl in DMSO through serial dilution to achieve final inhibitor concentrations of 64, 32, 16, 8, 4, 2, 1, 0.5, 0.25, 0.125, 0.0625, and 0.03125 µg/ml in 1% DMSO as reported previously for voriconazole incubated with Ac ([25]). Growth curves to evaluate treated trophozoites were initiated with 1 × 10^6 cells/ml and incubated for 48 h. Cell number was calculated with the use of a hemocytometer. The percentage of viable trophozoites following exposure to different concentrations of inhibitors was determined by the standard trypan blue exclusion method. Cells stained blue were considered nonviable. […] The IC50 of inhibitors against trophozoite growth was evaluated using GraphPad Prism with default setting (GraphPad Software Inc., CA).

[5] = test system: Acanthamoeba castellanii trophozoites sterol biosynthesis; test: Sterol composition of treated Ac trophozoites (GC/MS); type: cell-based; settings: to 48 h
Protocol: Amoeba and HEK cells were harvested at one or more points during growth in the presence and absence of steroidal inhibitor and azole at IC50 or MACs of the inhibitor or at 40 µM for HEK cells. Cell pellets were split with an internal standard of known amounts of 5α-cholestane added to one of the cell pellets for determination of sterol amounts in cells. Cells were saponified directly in aqueous methanolic potassium hydroxide at the reflux temperature for 1 h, which yielded total sterol (free plus sterol released from ester bonds). The resulting neutral lipids obtained by dilution with water and extraction with hexane (Fisher) were analyzed by GC/MS or HPLC-equipped with a diode array detector against cholesterol as a chromatographic reference. GC and HPLC retention times of sterols were compared with those obtained from authentic standards in our steroid collection ([18]–[22]). To determine the trophozoite sterol metabolome, GC/MS analysis of cell pellet nonsaponfiables was typically carried out using control cultures incubated in 5 ml medium in 25 ml T-flasks inoculated with 1 × 10^4 trophozoites/ml and cultured for 72 h. To generate significant cell pellets for sterol analysis of treated cells, trophozoites were cultured in 10 ml medium in 25 ml T-flasks inoculated with 1 × 10^5 cells/ml and grown for 48 h.

[6] = test system: Acanthamoeba castellanii trophozoites (strain ATCC 30010); design: method as in PMID 26014948; settings: previously reported; read-out: IC50 for Ac growth, previously reported value; cited from earlier work

| Molecule | product ratio generated by Ac24-SMT [1] | product ratio generated by Ac28-SMT [2] | further results |
| --- | --- | --- | --- |
| CC(C)=CCCC(C)C1CC[C@@]2(C)C3=C(CCC12C)C1(C)CCC(O)CC1CC3 (stereo partly drawn) [14α-methylzymosterol] | 97 | 26 |  |
| C=C(CCC(C)C1CCC2(C)C3CCC4C(C)(C)C(O)CCC45CC35CCC12C)C(C)C (stereo not drawn) [24(28)-methylenecycloartanol] | 0 | 0 |  |
| C=C(CCC(C)C1CCC2C3=CCC4C(C)C(O)CCC4(C)C3CCC21C)C(C)C (stereo not drawn) [24(28)-methylenelophenol] | 0 | 100 | Km as substrate of Ac28-SMT ([2]; from Lineweaver-Burk plots): ~25 µM; catalytic competence (kcat/Km) with Ac28-SMT ([2]; from Lineweaver-Burk plots): ~0.03; kcat as substrate of Ac28-SMT ([2]; from Lineweaver-Burk plots): ~0.013 s⁻¹ |
| CC(=CCC[C@@H](C)[C@H]1CC[C@H]2C3=CC=C4C[C@@H](O)CC[C@]4(C)[C@H]3CC[C@]12C)CF [26-flourocholesta-5,7,24-trieniol] |  |  | partition ratio against TbSMT [3]: 3 |
| CC(C)=CCCC(C)C1CC[C@@]2(C)C3=C(CCC12C)C1(C)CCC(O)[C@@H](C)C1CC3 (stereo partly drawn) [31-norlanosterol] | 100 | 49 |  |
| CC(C)=CCCC(C)C1CCC2C3=CC=C4CC(O)CCC4(C)C3CCC21C (stereo not drawn) [cholesta-5,7,24-trienol] | 100 | 50 |  |
| CC(C)=CCC[C@@H](C)[C@H]1CC[C@@]2(C)[C@@H]3CC[C@H]4C(C)(C)[C@@H](O)CC[C@@]45C[C@@]35CC[C@]12C [cycloartenol] | 100 | 67 | Km (Michaelis / binding constant) as substrate of Ac24-SMT ([1]; saturating SAM 150 µM, initial velocity conditions): ~44 µM; kcat (turnover rate) as substrate of Ac24-SMT ([1]; saturating SAM, initial velocity conditions): about 1.5 min^−1 |
| C=C(CC[C@@H](C)[C@H]1CC[C@@]2(C)[C@@H]3CC[C@H]4[C@H](C)[C@@H](O)CC[C@@]45C[C@@]35CC[C@]12C)C(C)C [cycloeucalenol] | 0 | 0 |  |
| C=C(CCC(C)C1CCC2C3=CCC4CC(O)CCC4(C)C3CCC21C)C(C)C (stereo not drawn) [episterol] | 0 | 64 |  |
| C=C(CCC(C)C1CCC2C3=C(CCC21C)C1(C)CCC(O)CC1CC3)C(C)C (stereo not drawn) [fecosterol] | 0 | 29 |  |
| CC(C)=CCC[C@@H](C)[C@H]1CC[C@@]2(C)C3=C(CC[C@]12C)[C@@]1(C)CC[C@H](O)C(C)(C)[C@@H]1CC3 [lanosterol] | 100 | 15 |  |
| C=C(CC[C@@H](C)[C@H]1CC[C@@]2(C)C3=C(CC[C@]12C)[C@@]1(C)CC[C@H](O)[C@@H](C)[C@@H]1CC3)C(C)C [obtusifoliol] | 0 | 0 |  |
| C[C@@H](c1ncncc1F)[C@](O)(Cn1cncn1)c1ccc(F)cc1F [voriconazole] |  |  | MAC (complete inhibition of growth, minimum amoebicidal concentration) [4]: 3 µM; IC50 ([4]; Acanthamoeba castellanii, ATCC30010, Ac trophozoites): 140 nM; accumulation of substrate of the target enzyme in treated trophozoites [5]: ≤ 1 % total; IC50 [6]: 390 nM |
| CC(C)=CCCC(C)C1CCC2C3=C(CCC21C)C1(C)CCC(O)CC1CC3 (stereo not drawn) [zymosterol] | 97 | 63 |  |
| eburicol | 0 | 0 |  |
